≈ marks a conversion by molar mass, not a printed value. Calls of active or inactive are those of the source. No cut-off for these calls is given here.
Key:
[1] = test system: Staphylococcus aureus; assay: Antibacterial activity against Staphylococcus aureus ATCC 25923 after 20 hrs; format: functional
[2] = test system: Pseudomonas aeruginosa; assay: Antibacterial activity against Pseudomonas aeruginosa ATCC 27853 after 20 hrs; format: functional; conditions: ATCC 27853, 20 h
[3] = test system: Escherichia coli; assay: Antibacterial activity against Escherichia coli ATCC 35218 after 20 hrs; format: functional; conditions: ATCC 35218, 20 h
[4] = test system: Bacillus anthracis; assay: Antibacterial activity against Bacillus anthracis Sterne after 20 hrs; format: functional
[5] = test system: Staphylococcus aureus; assay: Antibacterial activity against methicillin-resistant Staphylococcus aureus Lac JE2 USA300 at 100 ug/ml after 20 hrs; format: functional, organism-based
[6] = test system: Klebsiella pneumoniae; assay: Antibacterial activity against Klebsiella pneumoniae ATCC BAA-1706 at 100 ug/ml after 20 hrs; format: functional, organism-based
[7] = test system: Burkholderia cepacia; assay: Antibacterial activity against Burkholderia cepacia ATCC 25608 after 20 hrs; format: functional
[8] = test system: Francisella tularensis subsp. holarctica; assay: Antibacterial activity against Francisella tularensis subsp. holarctica ATCC 29684 at 100 ug/ml after 20 hrs; format: functional
[9] = test system: Yersinia pestis; assay: Antibacterial activity against Yersinia pestis A1122 after 20 hrs; format: functional; conditions: A1122, 20 h
[10] = test system: Burkholderia thailandensis; assay: Antibacterial activity against Burkholderia thailandensis ATCC 700388 after 20 hrs; format: functional
[11] = test system: Staphylococcus aureus; assay: Antibacterial activity against Staphylococcus aureus ATCC 25923 at 100 ug/ml after 20 hrs; format: functional, organism-based
[12] = test system: Escherichia coli; assay: Antibacterial activity against Escherichia coli ATCC 35218 at 100 ug/ml after 20 hrs; format: functional, organism-based
[13] = test system: Burkholderia thailandensis; assay: Antibacterial activity against Burkholderia thailandensis ATCC 700388 at 100 ug/ml after 20 hrs; format: functional
[14] = test system: Pseudomonas aeruginosa; assay: Antibacterial activity against Pseudomonas aeruginosa ATCC 27853 at 100 ug/ml after 20 hrs; format: functional, organism-based
[15] = test system: Burkholderia cepacia; assay: Antibacterial activity against Burkholderia cepacia ATCC 25608 at 100 ug/ml after 20 hrs; format: functional, organism-based
[16] = test system: Yersinia pestis; assay: Antibacterial activity against Yersinia pestis A1122 at 100 ug/ml after 20 hrs; format: functional
[17] = Antibacterial activity against Francisella tularensis subsp. holarctica ATCC 29684 after 20 hrs; format: functional; conditions: ATCC 29684, 20 h
[18] = test system: Staphylococcus aureus; assay: Antibacterial activity against methicillin-resistant Staphylococcus aureus Lac JE2 USA300 after 20 hrs; format: functional; conditions: LAC JE2 USA300, 20 h
[19] = test system: Klebsiella pneumoniae; assay: Antibacterial activity against Klebsiella pneumoniae ATCC BAA-1706 after 20 hrs; format: functional; conditions: ATCC BAA-1706, 20 h
[20] = Inhibition of Bacillus anthracis Sterne 34F2 DnaG primase activity using a DNA 32-mer template; set-up: species or system Bacillus anthracis str. Sterne
[21] = test system: Staphylococcus aureus; assay: Inhibition of Staphylococcus aureus DnaG primase activity after 1 hr by HPLC analysis

| SMILES | MIC [4] | Activity [5] | Activity [6] | MIC ([7]; ATCC 25608, 20 h) | Activity [8] | Activity [11] | Activity [12] | Activity [13] | Activity [14] | Activity [16] | MIC [17] | MIC [18] | other results |
| --- | --- | --- | --- | --- | --- | --- | --- | --- | --- | --- | --- | --- | --- |
| C=CCN(C)CCCOc1ccc2c(c1)C(=O)c1cc(OCCCN(C)CC=C)ccc1-2 | 100 µg/mL (≈ 230 µM) | inactive | inactive | 100 µg/mL (≈ 230 µM) | inactive | – | – | – | – | – | – | – | MIC [1]: inactive; MIC [2]: 100 µg/mL (≈ 230 µM); MIC [3]: 100 µg/mL (≈ 230 µM); MIC [9]: 100 µg/mL (≈ 230 µM); MIC [10]: inactive |
| C=CCN(C)CCOc1ccc2c(c1)C(=O)c1cc(OCCN(C)CC=C)ccc1-2 | 100 µg/mL (≈ 246 µM) | inactive | inactive | – | inactive | inactive | inactive | inactive | inactive | inactive | – | – | Activity [15]: inactive |
| O=C1c2cc(OCCCN3CCCCC3)ccc2-c2ccc(OCCCN3CCCCC3)cc21 | 75 µg/mL (≈ 162 µM) | inactive | inactive | – | inactive | inactive | inactive | inactive | – | inactive | – | – | MIC [2]: 100 µg/mL (≈ 216 µM); MIC [7]: inactive |
| O=C1c2cc(OCCN3CCCCC3)ccc2-c2ccc(OCCN3CCCCC3)cc21 | 100 µg/mL (≈ 230 µM) | inactive | inactive | 100 µg/mL (≈ 230 µM) | inactive | inactive | inactive | inactive | inactive | inactive | – | – | – |
| C=CCOc1ccc2c(c1)C(=O)c1cc(OCCCN(C)CC=C)ccc1-2 | 25 µg/mL (≈ 68.8 µM) | – | inactive | – | – | inactive | inactive | inactive | inactive | inactive | 50 µg/mL (≈ 138 µM) | 32 µg/mL (≈ 88 µM) | Activity [15]: inactive |
| C=CCN(C)CCCCCCCCOc1ccc2c(c1)C(=O)c1cc(OCCCCCCCCN(C)CC=C)ccc1-2 | 17.5 µg/mL (≈ 30.4 µM) | – | inactive | 100 µg/mL (≈ 174 µM) | – | – | inactive | – | inactive | inactive | 37.5 µg/mL (≈ 65.2 µM) | 16 µg/mL (≈ 27.8 µM) | MIC ([1]; ATCC 25923, 20 h): 50 µg/mL (≈ 87 µM); MIC ([10]; ATCC 700388, 20 h): 17.5 µg/mL (≈ 30.4 µM) |
| O=C1c2cc(OCCCCCCCCN3CCCCC3)ccc2-c2ccc(OCCCCCCCCN3CCCCC3)cc21 | 17.5 µg/mL (≈ 29 µM) | – | – | 87.5 µg/mL (≈ 145 µM) | – | – | inactive | – | inactive | inactive | 37.5 µg/mL (≈ 62.2 µM) | 16 µg/mL (≈ 26.5 µM) | MIC ([1]; ATCC 25923, 20 h): 62.5 µg/mL (≈ 104 µM); MIC [19]: 100 µg/mL (≈ 166 µM); MIC ([10]; ATCC 700388, 20 h): 25 µg/mL (≈ 41.5 µM) |
| CCN(CC)CCOc1ccc2c(c1)C(=O)c1cc(OCCN(CC)CC)ccc1-2 [TILORONE] | – | – | – | – | – | – | – | – | – | – | – | – | Activity [1]: inactive; IC50 [20]: 7.1 µM; inhibition [21]: Active |
